Assay results: ChEMBL document CHEMBL1201862, “PubChem BioAssay data set” (2004)
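How tested: cells in 96-well plates exposed to compound for 48 hours at five concentrations. GI50 = concentration required for 50% inhibition of growth.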 Calls of active or inactive are those of the source. Cut-off read from the data, not from the text of the source: active = GI50 up to about 1.1 µM and inactive = higher.

Key:
Test in all cases: NCI-60 cell line screen, 48 h
786-0 = test system: 786-0
A549 = test system: A549
CAKI-1 = test system: CAKI-1
CCRF-CEM = test system: CCRF-CEM
COLO 205 = test system: COLO 205
DU-145 = test system: DU-145
EKVX = test system: EKVX
HCC 2998 = test system: HCC 2998
HCT-15 = test system: HCT-15
HL-60 = test system: HL-60
HOP-62 = test system: HOP-62
HOP-92 = test system: HOP-92
HT-29 = test system: HT-29
IGROV-1 = test system: IGROV-1
K562 = test system: K562
KM12 = test system: KM12
LOX IMVI = test system: LOX IMVI
M14 = test system: M14
MCF7 = test system: MCF7
MDA-MB-231 = test system: MDA-MB-231
MDA-MB-435 = test system: MDA-MB-435
MDA-N = test system: MDA-N
MOLT-4 = test system: MOLT-4
Malme-3M = test system: Malme-3M
NCI-H23 = test system: NCI-H23
OVCAR-4 = test system: OVCAR-4
OVCAR-8 = test system: OVCAR-8
PC-3 = test system: PC-3
RPMI-8226 = test system: RPMI-8226
RXF 393 = test system: RXF 393
SF-268 = test system: SF-268
SF-295 = test system: SF-295
SK-MEL-28 = test system: SK-MEL-28
SK-MEL-5 = test system: SK-MEL-5
SK-OV-3 = test system: SK-OV-3
SN12C = test system: SN12C
SNB-75 = test system: SNB-75
SR = test system: SR
SW-620 = test system: SW-620
T47D = test system: T47D
TK-10 = test system: TK-10
UACC-257 = test system: UACC-257
UACC-62 = test system: UACC-62
A498 = test system: A498
ACHN = test system: ACHN
NCI-H226 = test system: NCI-H226
SK-MEL-2 = test system: SK-MEL-2
SNB-19 = test system: SNB-19
UO-31 = test system: UO-31
HCT-116 = test system: HCT-116
NCI-H460 = test system: NCI-H460
NCI-H522 = test system: NCI-H522
NCI/ADR-RES = test system: NCI/ADR-RES
OVCAR-3 = test system: OVCAR-3
OVCAR-5 = test system: OVCAR-5
SF-539 = test system: SF-539
U-251 = test system: U-251

How did the GI50 (786-0) turn out when `CCSc1[nH]c(Nc2nc(-c3ccccc3)n(-c3ccccc3)n2)c(C(N)=O)c1C(N)=O` was run?
The GI50 was > 10 µM (inactive).

What about the GI50 (A549) of the same compound?
Its GI50 is > 10 µM (inactive).

What about the GI50 (CAKI-1) of the same compound?
The GI50 was > 10 µM (inactive).

What about the GI50 (CCRF-CEM) of the same compound?
Its GI50 is > 10 µM (inactive).

And the GI50 (COLO 205)?
Its GI50 is > 10 µM (inactive).

What about the GI50 (DU-145) of the same compound?
The GI50 was > 10 µM (inactive).

What about the GI50 (EKVX) of the same compound?
Its GI50 is > 10 µM (inactive).

What about the GI50 (HCC 2998) of the same compound?
Its GI50 is > 10 µM (inactive).

What about the GI50 (HCT-15) of the same compound?
The GI50 was over 10 µM.

And the GI50 (HL-60)?
Its GI50 is > 10 µM (inactive).

What about the GI50 (HOP-62) of the same compound?
The GI50 was > 10 µM (inactive).

What about the GI50 (HOP-92) of the same compound?
The GI50 was > 10 µM (inactive).

And the GI50 (HT-29)?
The GI50 was > 10 µM (inactive).

And the GI50 (IGROV-1)?
The GI50 was > 10 µM (inactive).

What about the GI50 (K562) of the same compound?
The GI50 was > 10 µM (inactive).

And the GI50 (KM12)?
Its GI50 is > 10 µM (inactive).

What about the GI50 (LOX IMVI) of the same compound?
The GI50 was > 10 µM (inactive).

What about the GI50 (M14) of the same compound?
The GI50 was > 10 µM (inactive).

And the GI50 (MCF7)?
Its GI50 is > 10 µM (inactive).

What about the GI50 (MDA-MB-231) of the same compound?
The GI50 was > 10 µM (inactive).

And the GI50 (MDA-MB-435)?
Its GI50 is > 10 µM (inactive).

What about the GI50 (MDA-N) of the same compound?
Its GI50 is > 10 µM (inactive).

And the GI50 (MOLT-4)?
The GI50 was > 10 µM (inactive).

What about the GI50 (Malme-3M) of the same compound?
Its GI50 is > 10 µM (inactive).

What about the GI50 (NCI-H23) of the same compound?
Its GI50 is > 10 µM (inactive).

What about the GI50 (OVCAR-4) of the same compound?
The GI50 was 5.28 µM (inactive).

What about the GI50 (OVCAR-8) of the same compound?
Its GI50 is 6.64 µM (inactive).

What about the GI50 (PC-3) of the same compound?
Its GI50 is > 10 µM (inactive).

What about the GI50 (RPMI-8226) of the same compound?
Its GI50 is > 10 µM (inactive).

And the GI50 (RXF 393)?
The GI50 was 6.5 µM (inactive).

And the GI50 (SF-268)?
Its GI50 is > 10 µM (inactive).

What about the GI50 (SF-295) of the same compound?
The GI50 was 9.62 µM (inactive).

And the GI50 (SK-MEL-28)?
Its GI50 is > 10 µM (inactive).

And the GI50 (SK-MEL-5)?
Its GI50 is > 10 µM (inactive).

What about the GI50 (SK-OV-3) of the same compound?
Its GI50 is > 10 µM (inactive).

And the GI50 (SN12C)?
Its GI50 is > 10 µM (inactive).

And the GI50 (SNB-75)?
Its GI50 is 9.44 µM (inactive).

And the GI50 (SR)?
The GI50 was > 10 µM (inactive).

What about the GI50 (SW-620) of the same compound?
Its GI50 is > 10 µM (inactive).

And the GI50 (T47D)?
The GI50 was > 10 µM (inactive).

And the GI50 (TK-10)?
The GI50 was > 10 µM (inactive).

And the GI50 (UACC-257)?
Its GI50 is > 10 µM (inactive).

And the GI50 (UACC-62)?
Its GI50 is > 10 µM (inactive).

What does the source list for `C=CCOC(=O)CCCCCCCCCCCCCCCOC(=O)C1=C(CCC[C@@H](C)O[Si](C)(C)C(C)(C)C)N=C(N)N2[C@H](CC3(CC/C=C\[C@H](CC)O[Si](C(C)C)(C(C)C)C(C)C)OCCO3)CC[C@@H]12`?
GI50 (A498): > 100 µM (inactive); GI50 (ACHN): > 100 µM (inactive); GI50 (DU-145): > 100 µM (inactive); GI50 (HCC 2998): 49.3 µM (inactive); GI50 (K562): < 0.01 µM (active); GI50 (MCF7): 31.9 µM (inactive); GI50 (MDA-MB-231): > 100 µM (inactive); GI50 (NCI-H226): > 100 µM (inactive); GI50 (OVCAR-4): > 100 µM (inactive); GI50 (SK-MEL-28): > 100 µM (inactive); GI50 (SK-MEL-2): > 100 µM (inactive); GI50 (SK-OV-3): > 100 µM (inactive); GI50 (SN12C): > 100 µM (inactive); GI50 (SNB-19): > 100 µM (inactive); GI50 (SNB-75): 83.8 µM (inactive); GI50 (T47D): > 100 µM (inactive); GI50 (TK-10): > 100 µM (inactive); GI50 (UO-31): 63.5 µM (inactive)

`CCCCN(CCCC)CCC(O)c1cc(-c2ccc(C(F)(F)F)cc2)nc(-c2ccc(C(F)(F)F)cc2)c1` (configuration not stated) was tested. Which GI50 (786-0) did it give?
The GI50 was > 100 µM (inactive).

What about the GI50 (A498) of the same compound?
Its GI50 is > 100 µM (inactive).

And the GI50 (ACHN)?
Its GI50 is > 100 µM (inactive).

What about the GI50 (CAKI-1) of the same compound?
Its GI50 is > 100 µM (inactive).

And the GI50 (CCRF-CEM)?
The GI50 was > 100 µM (inactive).

And the GI50 (COLO 205)?
The GI50 was > 100 µM (inactive).

And the GI50 (DU-145)?
The GI50 was > 100 µM (inactive).

And the GI50 (EKVX)?
The GI50 was > 100 µM (inactive).

And the GI50 (HCC 2998)?
Its GI50 is > 100 µM (inactive).

And the GI50 (HCT-116)?
Its GI50 is > 100 µM (inactive).

What about the GI50 (HCT-15) of the same compound?
Its GI50 is over 100 µM.

And the GI50 (HL-60)?
Its GI50 is > 100 µM (inactive).

And the GI50 (HOP-62)?
The GI50 was > 100 µM (inactive).

And the GI50 (HOP-92)?
Its GI50 is > 100 µM (inactive).

What about the GI50 (HT-29) of the same compound?
The GI50 was > 100 µM (inactive).

And the GI50 (IGROV-1)?
Its GI50 is > 100 µM (inactive).

What about the GI50 (K562) of the same compound?
Its GI50 is > 100 µM (inactive).

And the GI50 (LOX IMVI)?
Its GI50 is > 100 µM (inactive).

What about the GI50 (M14) of the same compound?
The GI50 was > 100 µM (inactive).

What about the GI50 (MCF7) of the same compound?
Its GI50 is > 100 µM (inactive).

What about the GI50 (MDA-MB-231) of the same compound?
Its GI50 is > 100 µM (inactive).

What about the GI50 (MDA-MB-435) of the same compound?
The GI50 was > 100 µM (inactive).

What about the GI50 (MDA-N) of the same compound?
The GI50 was > 100 µM (inactive).

What about the GI50 (MOLT-4) of the same compound?
The GI50 was > 100 µM (inactive).

What about the GI50 (Malme-3M) of the same compound?
Its GI50 is > 100 µM (inactive).

And the GI50 (NCI-H23)?
The GI50 was > 100 µM (inactive).

And the GI50 (NCI-H460)?
Its GI50 is > 100 µM (inactive).

And the GI50 (NCI-H522)?
The GI50 was > 100 µM (inactive).

And the GI50 (NCI/ADR-RES)?
The GI50 was > 100 µM (inactive).

What about the GI50 (OVCAR-3) of the same compound?
Its GI50 is > 100 µM (inactive).

And the GI50 (OVCAR-4)?
Its GI50 is > 100 µM (inactive).

And the GI50 (OVCAR-5)?
The GI50 was > 100 µM (inactive).

And the GI50 (OVCAR-8)?
The GI50 was > 100 µM (inactive).

And the GI50 (PC-3)?
The GI50 was > 100 µM (inactive).

What about the GI50 (RPMI-8226) of the same compound?
The GI50 was > 100 µM (inactive).

What about the GI50 (SF-268) of the same compound?
The GI50 was > 100 µM (inactive).

What about the GI50 (SF-295) of the same compound?
The GI50 was > 100 µM (inactive).

And the GI50 (SF-539)?
The GI50 was > 100 µM (inactive).

And the GI50 (SK-MEL-28)?
The GI50 was > 100 µM (inactive).

What about the GI50 (SK-MEL-2) of the same compound?
Its GI50 is > 100 µM (inactive).

What about the GI50 (SN12C) of the same compound?
The GI50 was > 100 µM (inactive).

What about the GI50 (SNB-19) of the same compound?
Its GI50 is > 100 µM (inactive).

What about the GI50 (SNB-75) of the same compound?
The GI50 was > 100 µM (inactive).

What about the GI50 (SR) of the same compound?
Its GI50 is > 100 µM (inactive).

And the GI50 (SW-620)?
The GI50 was > 100 µM (inactive).

What about the GI50 (T47D) of the same compound?
The GI50 was > 100 µM (inactive).

And the GI50 (TK-10)?
Its GI50 is > 100 µM (inactive).

What about the GI50 (U-251) of the same compound?
Its GI50 is > 100 µM (inactive).

And the GI50 (UACC-257)?
Its GI50 is > 100 µM (inactive).

And the GI50 (UACC-62)?
Its GI50 is > 100 µM (inactive).

And the GI50 (UO-31)?
The GI50 was > 100 µM (inactive).
